pKi: −log10 of the molar value. ≈ marks a conversion by molar mass, not a printed value. Like-named read-outs stand apart in the source and are kept apart here.

Here are results for four molecules from patent publication US20130231276A1, “Combination Of An Aminoacyl-tRNA Synthetase Inhibitor With A Further Antibacterial Agent For Attenuating Multiple Drug Resistance” (BROWN UNIVERSITY, priority 2010, published 2013).

The subject of test [1] is Streptomyces coelicolor M600. The test can be described thus: MIC on Difco Nutrient Agar with sub-lethal indolmycin, strain M600 (wild-type). The class given is cell-based. To be noted: for MIC: Streptomyces coelicolor, M600, 48 h, 30° C., 48 hours. How it is done: (§1) Changes in the susceptibility of S. coelicolor to three clinically used antibacterial drugs (chloramphenicol, erythromycin, and vancomycin) grown in the presence of indolmycin were assessed. The effects of antibiotic combinations were assessed in wild-type S. coelicolor, which has an auxiliary, indolmycin-resistant isoform of tryptophanyl-tRNA synthetase (TrpRS1). We also examined these combinations in three other indolmycin-resistant strains of S. coelicolor—a trpRS2 null strain (B728) (8) and two strains lacking trpRS1 with resistance conferring point mutations in trpRS2 (B734 with TrpRS2 H48N and B735 with TrpRS2 H48Q) (9). These strains were selected because the strong antibacterial activity of indolmycin precluded testing of this hypothesis in the indolmycin-sensitive trpRS1 null strain of S. coelicolor. The effects were measured in terms of changes in the chloramphenicol, erythromycin, and vancomycin MICs of the four strains over a range of sub-lethal indolmycin concentrations.
(§2) Streptomyces coelicolor strains were grown on DIFCO Nutrient Agar supplemented with indolmycin (0-100 μg/mL) and one of the following antibacterial agents: chloramphenicol (10-80 μg /mL), erythromycin (1-110 μg/mL), and vancomycin (30-140 μg/mL). The strains were grown on the media at 30° C. for 48 hours, after which point growth was assessed visually.
(§3) A 50 mg/mL (active enantiomer) stock solution of indolmycin was prepared by dissolving the indolmycin in DMSO. The concentrations of each stock solution reflect the actual concentration of the pharmacologically active substance. Aliquots of the stock solutions were added directly to molten, sterile DIFCO Nutrient Agar prior to solidification. Streptomyces coelicolor spores were directly spread onto the surface of each DNA plate and the plates were incubated at 30° C. for about 48 hours. Growth was assessed visually after the incubation period. Minimal inhibitory concentrations (MICs) reflect the drug concentrations at which no Streptomyces coelicolor growth was observed.
(§4) All Streptomyces strains were grown on Difco Nutrient Agar at 30° C. The MICs were assessed after 48 hours.

The test system of test [2] is Streptomyces coelicolor B728. Nature of the test: MIC on Difco Nutrient Agar with sub-lethal indolmycin, strain B728 (trpRS2 null). The class given is cell-based. On the procedure: as §1, §2, §3, §4
Test [3] relates to methicillin-resistant Staphylococcus aureus. The settings on record: cited from earlier work.
Another test relates to Helicobacter pylori. The settings on record: cited from earlier work.
For another test, the system named is S. coelicolor. The test can be described thus: Indolmycin MIC against S. coelicolor. In kind it is cell-based, Streptomyces coelicolor. The settings on record: indolmycin alone.
Test [4] addresses tryptophanyl-tRNA synthetase (TrpRS1) (Streptomyces coelicolor, UniProt Q8CJX0). To be noted: TrpRS1 of S. coelicolor, reference (19), cited from earlier work.
Where [5] appears, read: strain M600, 0 μg/ml Indolmycin, read-out: MIC.
The mark [6] stands for this setting: strain M600, 10 μg/ml Indolmycin, read-out: MIC.
Setting [7] is: strain M600, 25 μg/ml Indolmycin, read-out: MIC.
Setting [8] is: strain M600, 50 μg/ml Indolmycin, read-out: MIC.
The mark [9] stands for this setting: strain M600, 75 μg/ml Indolmycin, read-out: MIC.
Setting [10] is: strain M600, 100 μg/ml Indolmycin, read-out: MIC.
Setting [11] is: Streptomyces coelicolor, B728, 48 h, strain B728, 0 μg/ml Indolmycin, 30° C., 48 hours.
[12] abbreviates: Streptomyces coelicolor, B728, 48 h, strain B728, 10 μg/ml Indolmycin, 30° C., 48 hours.
Setting [13] is: Streptomyces coelicolor, B728, 48 h, strain B728, 25 μg/ml Indolmycin, 30° C., 48 hours.
Setting [14] is: Streptomyces coelicolor, B728, 48 h, strain B728, 50 μg/ml Indolmycin, 30° C., 48 hours.
The mark [15] stands for this setting: Streptomyces coelicolor, B728, 48 h, strain B728, 75 μg/ml Indolmycin, 30° C., 48 hours.
Where [16] appears, read: Streptomyces coelicolor, B728, 48 h, strain B728, 100 μg/ml Indolmycin, 30° C., 48 hours.

tryptophanyl-tRNA synthetase (TrpRS1), sequence (Q8CJX0 whole entry): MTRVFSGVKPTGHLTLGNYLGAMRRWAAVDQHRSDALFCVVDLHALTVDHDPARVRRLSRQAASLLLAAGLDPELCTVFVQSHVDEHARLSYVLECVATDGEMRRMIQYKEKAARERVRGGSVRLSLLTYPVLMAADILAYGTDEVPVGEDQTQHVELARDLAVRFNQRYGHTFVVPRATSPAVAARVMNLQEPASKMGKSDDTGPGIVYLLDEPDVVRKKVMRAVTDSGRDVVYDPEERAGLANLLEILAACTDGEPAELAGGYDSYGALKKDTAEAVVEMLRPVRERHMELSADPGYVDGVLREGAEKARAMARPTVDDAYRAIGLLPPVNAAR

As for `O=C(N[C@H](CO)[C@H](O)c1ccc([N+](=O)[O-])cc1)C(Cl)Cl` [Chloramphenicol, chloramphenicol], the MIC in test [1] (setting [5]) worked out at 80 µg/mL; in test [1] (setting [6]), 35 µg/mL; in test [1] (setting [7]), 25 µg/mL; in test [1] (setting [8]), 20 µg/mL; in test [1] (setting [9]), 15 µg/mL; in test [1] (setting [10]), 10 µg/mL. Moreover, the MIC in test [2] (setting [11]) came out at 60 µg/mL; in test [2] (setting [12]) it was 40 µg/mL; in test [2] (setting [13]), 30 µg/mL; in test [2] (setting [14]), 30 µg/mL; in test [2] (setting [15]), 20 µg/mL; in test [2] (setting [16]) it was 20 µg/mL. Moreover, the MIC was reduced in test [1] (wild-type S. coelicolor, media supplemented with indolmycin) came out at 10 fold.

On to `CN[C@H](CC(C)C)C(=O)N[C@H]1C(=O)N[C@@H](CC(N)=O)C(=O)N[C@H]2C(=O)N[C@H]3C(=O)N[C@H](C(=O)N[C@H](C(=O)O)c4cc(O)cc(O)c4-c4cc3ccc4O)[C@H](O)c3ccc(c(Cl)c3)Oc3cc2cc(c3O[C@@H]2O[C@H](CO)[C@@H](O)[C@H](O)[C@H]2O[C@H]2C[C@](C)(N)[C@H](O)[C@H](C)O2)Oc2ccc(cc2Cl)[C@H]1O` [Vancomycin, vancomycin], for which the MIC was determined as 110 µg/mL in test [1] (strain M600, 0 μg/ml Indolmycin); 110 µg/mL in test [1] (strain M600, 10 μg/ml Indolmycin); 110 µg/mL in test [1] (strain M600, 25 μg/ml Indolmycin); 110 µg/mL in test [1] (strain M600, 50 μg/ml Indolmycin); 110 µg/mL in test [1] (strain M600, 75 μg/ml Indolmycin); 70 µg/mL in test [1] (strain M600, 100 μg/ml Indolmycin). The MIC in test [2] (Streptomyces coelicolor, B728, 48 h) stood at 130 µg/mL; in test [2] (strain B728, 10 μg/ml Indolmycin, 30° C., 48 hours) it was 130 µg/mL; in test [2] (strain B728, 25 μg/ml Indolmycin, 30° C., 48 hours) it was 130 µg/mL; in test [2] (strain B728, 50 μg/ml Indolmycin, 30° C., 48 hours), 130 µg/mL; in test [2] (strain B728, 75 μg/ml Indolmycin, 30° C., 48 hours), 130 µg/mL; in test [2] (strain B728, 100 μg/ml Indolmycin, 30° C., 48 hours) it was 130 µg/mL. Besides, the “more sensitive in the presence of indolmycin” value in test [1] (strain M600, about 100 μg/mL indolmycin) was found to be 1.6 times.

On to `CC[C@H]1OC(=O)[C@H](C)[C@@H](O[C@H]2C[C@@](C)(OC)[C@@H](O)[C@H](C)O2)[C@H](C)[C@@H](O[C@@H]2O[C@H](C)C[C@H](N(C)C)[C@H]2O)[C@](C)(O)C[C@@H](C)C(=O)[C@H](C)[C@@H](O)[C@]1(C)O` [Erythromycin, erythromycin], for which the MIC was determined as 110 µg/mL in test [1] (setting [5]); 40 µg/mL in test [1] (setting [6]); 30 µg/mL in test [1] (setting [7]); 15 µg/mL in test [1] (setting [8]); 10 µg/mL in test [1] (setting [9]); 5 µg/mL in test [1] (setting [10]). Also, the MIC came out at 70 µg/mL in test [2] (setting [11]); 50 µg/mL in test [2] (setting [12]); 30 µg/mL in test [2] (setting [13]); 20 µg/mL in test [2] (setting [14]); 10 µg/mL in test [2] (setting [15]); 5 µg/mL in test [2] (setting [16]).

As to `CN=C1NC(=O)[C@H]([C@H](C)c2c[nH]c3ccccc23)O1` [indolmycin], the MIC in test [3] was 0.5 µg/mL (≈ 1.94 µM); in the test with Helicobacter pylori, 0.016 µg/mL (≈ 0.0622 µM); against S. coelicolor, greater than 500 µg/mL. Further, the pKi is 6.05 in test [4] and roughly 6.05 in test [4] (listed as Indolmycin).
